Measurements from patent US7820400B2, “Tumor-associated marker” (The Trustees of Columbia University in the City of New York, priority 2000, dated 2010).

Tested on: SK-BR-3 cells
Assay: Release of TIP-2 antigen into culture media of Taxol-treated cells (Western blot)
Assay type: cell-based, human
Conditions: SK-BR-3 cells treated with increasing amounts of Taxol (5.5-88 uM)
Description: The release of TIP-2 antigen into cell culture media of SK-BR-3 cells treated with different concentration of Taxol. The lines are as follows (from left to right): 1) SK-BR-3 cell lysate prepared form approximately 70,000 cells; 2) empty lane; 3) Taxol, 88 uM added to 35 mm tissue plate containing approximately 250,000 cells; 4) same with Taxol, 44 uM; 5) same with Taxol, 22 uM; 7) same with Taxol, 11 uM; 8) same with Taxol, 5.5 uM; 9) cell lysate prepared from cells which were not treated with Taxol; 10) lysate prepared from the residual dead cells' remnants after treatment with Taxol, 88 uM.
Using a specific fusion partner cell line MFP-2 were developed two fully human antibodies to breast and prostate cancer-associated antigens. Both antigens were reactive with a 42 kDa-protein target, which was identified through SEREX technology as Ga-interacting protein, C terminus or Tax interacting protein, clone 2. This protein is specifically overexpressed in three human breast cancer cell lines, SK-BR-3, MCF-7 and ZR-1-75, has very low if any expression level in human prostate cancer lines, PC-3, LNCaP and DU-145 and no expression in two human fibroblast cell lines. […] Normal breast epithelia were negative for staining with anti-TIP-2 antibodies as was benign prostate hyperplasia (BPH) tissue. […]

CC(=O)O[C@H]1C(=O)[C@@]2(C)[C@H]([C@H](OC(=O)c3ccccc3)[C@]3(O)C[C@H](OC(=O)[C@H](O)[C@@H](NC(=O)c4ccccc4)c4ccccc4)C(C)=C1C3(C)C)[C@]1(OC(C)=O)CO[C@@H]1C[C@@H]2O [Taxol]
release of TIP-2 antigen into the media: TIP-2 antigen released into the media in a dose dependent manner
